In PubChem BioAssay AID248 (DTP/NCI, 2004):
Where “and” joins values, the source holds several entries; their conditions need not be identical. Equal values may be shown once. Inconclusive results and toxic doses are left out.

Test system: L1210 leukemia ip in BDF1 mice, survival T/C
Experiment: NCI In Vivo Anticancer Drug Screen. Data for tumor model L1210 Leukemia (intraperitoneal) in B6D2F1 (BDF1) mice
Settings: endpoint: mean survival time, higher = longer survival
Outline: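 Ratio derived from survival: compound-dosed mice over vehicle-dosed mice, all bearing a transplantable tumor.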

[1] = dose: 100.0 mg/kg/injection, schedule: Q04DX003 (ip), vehicle: saline with Tween-80
[2] = dose: 200.0 mg/kg/injection, schedule: Q04DX003 (ip), vehicle: saline with Tween-80
[3] = dose: 400.0 mg/kg/injection, schedule: Q04DX003 (ip), vehicle: saline with Tween-80
[4] = dose: 100.0 mg/kg/injection, schedule: Q01DX009 (ip), vehicle: Klucel (hydroxypropylcellulose) (HPC)
[5] = dose: 200.0 mg/kg/injection, schedule: Q01DX009 (ip), vehicle: Klucel (hydroxypropylcellulose) (HPC)
[6] = dose: 400.0 mg/kg/injection, schedule: Q01DX009 (ip), vehicle: Klucel (hydroxypropylcellulose) (HPC)
[7] = dose: 50.0 mg/kg/injection, schedule: Q01DX001 (ip), vehicle: saline
[8] = dose: 100.0 mg/kg/injection, schedule: Q01DX001 (ip), vehicle: saline
[9] = dose: 200.0 mg/kg/injection, schedule: Q01DX001 (ip), vehicle: saline
[10] = dose: 400.0 mg/kg/injection, schedule: Q01DX001 (ip), vehicle: saline
[11] = dose: 100.0 mg/kg/injection, schedule: Q04DX003 (ip), vehicle: saline
[12] = dose: 200.0 mg/kg/injection, schedule: Q04DX003 (ip), vehicle: saline
[13] = dose: 400.0 mg/kg/injection, schedule: Q04DX003 (ip), vehicle: saline
[14] = dose: 100.0 mg/kg/injection, schedule: Q01DX001 (ip), vehicle: Klucel (hydroxypropylcellulose) (HPC)
[15] = dose: 100.0 mg/kg/injection, schedule: Q04DX002 (ip), vehicle: Klucel (hydroxypropylcellulose) (HPC)
[16] = dose: 100.0 mg/kg/injection, schedule: Q04DX003 (ip), vehicle: Klucel (hydroxypropylcellulose) (HPC)
[17] = dose: 200.0 mg/kg/injection, schedule: Q04DX002 (ip), vehicle: Klucel (hydroxypropylcellulose) (HPC)
[18] = dose: 200.0 mg/kg/injection, schedule: Q04DX003 (ip), vehicle: Klucel (hydroxypropylcellulose) (HPC)
[19] = dose: 100.0 mg/kg/injection, schedule: Q04DX002 (ip), vehicle: saline
[20] = dose: 200.0 mg/kg/injection, schedule: Q04DX002 (ip), vehicle: saline
[21] = dose: 100.0 mg/kg/injection, schedule: Q01DX009 (ip), vehicle: saline

CC(C)(C)NC(=O)CCC(CC(=O)NC(C)(C)C)C1([N+](=O)[O-])CCCCC1 (centres undefined)
T/C [1]: 92 % of control | T/C [2]: 91 % of control | T/C [3]: 86 % of control

S=C(N/N=C/c1ccccc1Cl)Nc1ccccc1
T/C [4]: 95 % of control | T/C [5]: 100 % of control | T/C [6]: 101 % of control

O=S(=O)(Cc1ccccc1)Cc1ccccc1
T/C [7]: 101 % of control | T/C [8]: 95 % of control | T/C [1]: 96 % of control | T/C [9]: 95 % of control | T/C [2]: 100 % of control | T/C [10]: 91 % of control | T/C [3]: 100 % of control

C[N+](C)(C)CCCN1c2ccccc2S(=O)c2ccc(Cl)cc21 (centres undefined)
T/C (dose: 100.0 mg/kg/injection, schedule: Q01DX001 (ip), vehicle: carboxymethylcellulose (CMC)): 100 % of control | T/C (dose: 200.0 mg/kg/injection, schedule: Q01DX001 (ip), vehicle: carboxymethylcellulose (CMC)): 103 % of control | T/C (dose: 400.0 mg/kg/injection, schedule: Q01DX001 (ip), vehicle: carboxymethylcellulose (CMC)): 103 % of control

COc1cc(C=C2c3ccccc3-c3ccccc32)ccc1O
T/C [8]: 91 % of control | T/C [11]: 99 % of control | T/C [9]: 91 % of control | T/C [12]: 91 % of control | T/C [10]: 91 % of control | T/C [13]: 91 % of control

CSC(=O)SC
T/C (dose: 100.0 mg/kg/injection, schedule: Q01DX009 (ip), vehicle: saline with Tween-80): 101 % of control

CC12OC1C(=O)c1ccccc1C2=O (centres undefined)
T/C (dose: 5.0 mg/kg/injection, schedule: Q04DX003 (ip), vehicle: Klucel (hydroxypropylcellulose) (HPC)): 103 % of control | T/C (dose: 10.0 mg/kg/injection, schedule: Q04DX003 (ip), vehicle: Klucel (hydroxypropylcellulose) (HPC)): 97 % of control

CC1=CP(=O)(c2ccccc2)CC1 (centres undefined)
T/C [8]: 102 % of control | T/C [9]: 102 % of control | T/C [10]: 105 % of control

Nn1c(Cc2ccccc2)nnc1Cc1ccccc1
T/C (dose: 100.0 mg/kg/injection, schedule: Q04DX002 (ip), vehicle: saline with Tween-80): 104 % of control | T/C (dose: 200.0 mg/kg/injection, schedule: Q04DX002 (ip), vehicle: saline with Tween-80): 87 % of control | T/C (dose: 400.0 mg/kg/injection, schedule: Q04DX002 (ip), vehicle: saline with Tween-80): 108 % of control

N#CC(CC(=O)O)=C(c1ccccc1)c1ccccc1
T/C [14]: 106 % of control | T/C [4]: 97 % of control and 104 % of control | T/C [15]: 96 % of control and 98 % of control | T/C [16]: 97 % of control | T/C (dose: 200.0 mg/kg/injection, schedule: Q01DX001 (ip), vehicle: Klucel (hydroxypropylcellulose) (HPC)): 110 % of control | T/C [5]: 95 % of control and 101 % of control | T/C [17]: 95 % of control and 101 % of control | T/C [18]: 101 % of control

NC(=O)NN=C(CCl)CCl
T/C [19]: 100 % of control | T/C [20]: 91 % of control

O=[N+]([O-])c1ccc(CCCl)cc1
T/C (dose: 100.0 mg/kg/injection, schedule: Q04DX003 (ip), vehicle: acetone): 102 % of control | T/C (dose: 200.0 mg/kg/injection, schedule: Q04DX003 (ip), vehicle: acetone): 104 % of control | T/C (dose: 400.0 mg/kg/injection, schedule: Q04DX003 (ip), vehicle: acetone): 92 % of control

COC(=O)c1ccc([N+](=O)[O-])o1
T/C (dose: 50.0 mg/kg/injection, schedule: Q04DX002 (ip), vehicle: Klucel (hydroxypropylcellulose) (HPC)): 104 % of control | T/C [4]: 93 % of control | T/C [15]: 90 % of control | T/C [5]: 111 % of control | T/C [17]: 101 % of control | T/C (dose: 400.0 mg/kg/injection, schedule: Q04DX002 (ip), vehicle: Klucel (hydroxypropylcellulose) (HPC)): 87 % of control

CCCCCCCCP(=O)(CCCCCC)CCCCCC
T/C (dose: 100.0 mg/kg/injection, schedule: Q01DX001 (ip), vehicle: saline with Tween-80): 97 % of control | T/C (dose: 200.0 mg/kg/injection, schedule: Q01DX001 (ip), vehicle: saline with Tween-80): 101 % of control | T/C (dose: 400.0 mg/kg/injection, schedule: Q01DX001 (ip), vehicle: saline with Tween-80): 111 % of control

ClCc1nc2ccccc2[nH]1
T/C [7]: 101 % of control | T/C [8]: 101 % of control | T/C [16]: 105 % of control | T/C [9]: 104 % of control | T/C [18]: 102 % of control | T/C [10]: 110 % of control | T/C (dose: 400.0 mg/kg/injection, schedule: Q04DX003 (ip), vehicle: Klucel (hydroxypropylcellulose) (HPC)): 98 % of control

C1CN1P1(N2CC2)=NP(N2CC2)(N2CC2)=NP(N2CC2)(N2CC2)=NP(N2CC2)(N2CC2)=N1
T/C (dose: 4.4 mg/kg/injection, schedule: Q04DX003 (ip), vehicle: saline): 114 % of control | T/C (dose: 6.6 mg/kg/injection, schedule: Q04DX003 (ip), vehicle: saline): 116 % of control | T/C (dose: 10.0 mg/kg/injection, schedule: Q01DX001 (ip), vehicle: saline): 118 % of control | T/C (dose: 10.0 mg/kg/injection, schedule: Q04DX003 (ip), vehicle: saline): 119 % of control | T/C (dose: 20.0 mg/kg/injection, schedule: Q04DX003 (ip), vehicle: saline): 117 % of control | T/C (dose: 40.0 mg/kg/injection, schedule: Q01DX001 (ip), vehicle: saline): 124 % of control | T/C (dose: 40.0 mg/kg/injection, schedule: Q04DX003 (ip), vehicle: saline): 109 % of control

CC(=O)Nc1cccc(C(=O)O)c1[N+](=O)[O-]
T/C [4]: 103 % of control | T/C [11]: 103 % of control | T/C [5]: 97 % of control | T/C [12]: 106 % of control | T/C [6]: 93 % of control | T/C [13]: 103 % of control

CCN(CC)CC(=O)NCC(CCN(C)C)(c1ccc2ccccc2c1)C(C)C (centres undefined)
T/C (dose: 25.0 mg/kg/injection, schedule: Q04DX003 (ip), vehicle: saline): 99 % of control | T/C (dose: 50.0 mg/kg/injection, schedule: Q04DX002 (ip), vehicle: saline): 97 % of control | T/C (dose: 50.0 mg/kg/injection, schedule: Q04DX003 (ip), vehicle: saline): 94 % of control | T/C [21]: 98 % of control | T/C [19]: 106 % of control | T/C [11]: 97 % of control | T/C [20]: 86 % of control

CCC(=O)OCC1CCC(COC(=O)CC)CC1 (centres undefined)
T/C (dose: 222.0 mg/kg/injection, schedule: Q01DX Z (ip), vehicle: methylcellulose (MC)): 100 % of control | T/C (dose: 333.0 mg/kg/injection, schedule: Q01DX Z (ip), vehicle: methylcellulose (MC)): 96 % of control | T/C (dose: 500.0 mg/kg/injection, schedule: Q01DX Z (ip), vehicle: methylcellulose (MC)): 97 % of control

CCCCCCCCCCNCCC(=O)O
T/C (dose: 12.5 mg/kg/injection, schedule: Q01DX001 (ip), vehicle: saline): 94 % of control | T/C (dose: 25.0 mg/kg/injection, schedule: Q01DX001 (ip), vehicle: saline): 94 % of control | T/C (dose: 25.0 mg/kg/injection, schedule: Q01DX009 (ip), vehicle: saline): 104 % of control | T/C (dose: 37.5 mg/kg/injection, schedule: Q01DX009 (ip), vehicle: saline): 104 % of control | T/C [7]: 100 % of control | T/C (dose: 50.0 mg/kg/injection, schedule: Q01DX009 (ip), vehicle: saline): 102 % of control | T/C (dose: 75.0 mg/kg/injection, schedule: Q01DX001 (ip), vehicle: saline): 101 % of control | T/C (dose: 75.0 mg/kg/injection, schedule: Q01DX009 (ip), vehicle: saline): 88 % of control | T/C [8]: 101 % of control | T/C [21]: 104 % of control | T/C (dose: 150.0 mg/kg/injection, schedule: Q01DX001 (ip), vehicle: saline): 94 % of control

Cc1cc(NC(=O)NCCCl)c2c(c1C)CCCC2
T/C (dose: 20.0 mg/kg/injection, schedule: Q01DX001 (ip), vehicle: Klucel (hydroxypropylcellulose) (HPC)): 100 % of control | T/C (dose: 40.0 mg/kg/injection, schedule: Q01DX001 (ip), vehicle: Klucel (hydroxypropylcellulose) (HPC)): 96 % of control | T/C [14]: 90 % of control

CC(=O)Nc1ccc(C(=O)Nc2ccc(C3=NCCN3)cc2)cc1C(=O)Nc1ccc(C2=NCCN2)cc1
T/C (dose: 62.0 mg/kg/injection, schedule: Q01DX015 (ip), vehicle: carboxymethylcellulose (CMC)): 317 % of control | T/C (dose: 250.0 mg/kg/injection, schedule: Q01DX015 (ip), vehicle: carboxymethylcellulose (CMC)): 158 % of control
